{"source": "patent US20190248834A1", "about": "“ENDOMORPHIN-2, TETRAPEPTIDE DERIVATIVES THEREOF, AND USES THEREOF” (priority 2016, published 2019)", "assay_type_in_all_cases": "in vivo, human", "key": {"[1]": {"tested_on": "sub-acute pain of left wrist", "assay": "Example 10: analgesic effect on wrist pain, topical", "experimental": "A subject had sub-acute pain of their left wrist, which they twisted while lifting a child.\nThe subject topically applied an anhydrous composition containing 0.7% (w/v) N-Ac-Tyr-Pro-Phe-Phe-NH2 (SEQ ID NO: 23) in EP73, formulated as described in Example 2, before bedtime. The next morning, about 70% relief of pain was observed. The subject topically re-applied the same composition under plastic film wrap for 2 hours, and the wrist pain was completely eradicated. The subject was free of any wrist pain and the improvement was 100% as judged by clinical evaluation."}, "[2]": {"tested_on": "knee and lower back pain from osteoarthritis", "assay": "Example 14: analgesic effect on osteoarthritic knees and lower back, topical", "conditions": "1% (w/v) in WEP442, about 60 ml to whole body", "experimental": "A subject had severe knee pain for many years and lower back pain for approximately one year from osteoarthritis, and in both cases, the pain was partially relieved by oral opiates. One day before bedtime, the subject took a low dose of an opiate, but the next morning, they still developed substantial pain in the knees and moderate pain in the lower back.\nThe subject topically applied approximately 60 ml of a solution composition containing 1% (w/v) N-Ac-Tyr-Pro-Phe-Phe-NH2 (SEQ ID NO: 23) in WEP442 to the whole body, excluding only the scalp, face and soles. […] This lowered degree of pain was maintained for about 7 hours."}, "[3]": {"tested_on": "disabling pain in hands and fingers after exertion", "assay": "Example 25: analgesic effect on severe muscle soreness, topical", "conditions": "1% (w/v) in WEP442, topical", "description": "A subject had disabling pain in their hands and fingers the next morning after a day of intense exertion of the hands and fingers from using hand screw drivers over a 12-hour period during a building construction job. The intensity of pain was so great that they were unable to lace up their work boots."}, "[4]": {"tested_on": "hallux valgus (bunion)", "assay": "Example 26: analgesic effect on painful inflammation of hallux valgus, topical", "description": "A subject had hallux valgus of the right 1st metatarsal-proximal phalangeal joint for a duration of 5-6 years. Pain in the joint was episodic and associated with inflammation. […] A second application of the solution was made that evening, even though there was no pain. […] Such improvement lasted over the next 2 weeks."}, "[5]": {"tested_on": "sunburn pain", "assay": "Example 30: analgesic effect on sunburn pain, topical", "conditions": "1% (w/v) in WEP442, topical", "description": "A subject with severe sunburn of their anterior legs the day after exposure to sunlight without sunscreen protection, topically applied a composition containing 1% (w/v) of N-Ac-Tyr-Pro-Phe-Phe-NH2 (SEQ ID NO: 23) in WEP442 to both legs."}, "[6]": {"tested_on": "psoriatic knee pain", "assay": "Example 66: analgesic effect on psoriatic knee pain, topical", "conditions": "0.5% (w/v) in WEP442, topical", "description": "A person with plaque psoriasis of the scalp, elbows and knees for about 10 years had pain in their knees for the past 4-5 years. The knee pain had gradually worsened. […] After hiking for several hours, the knee pain sometimes re-occurred, but it was immediately relieved by topical application of the above solution composition."}, "[7]": {"tested_on": "psoriatic arthritis", "assay": "Example 73: analgesic effect on psoriatic arthritis of hands, fingers and ankles, topical", "conditions": "0.5% (w/v) in WEP442, topical", "description": "A subject had psoriatic arthritis of the hands and finger joints and ankle joints for 4 years."}, "[8]": {"tested_on": "hangover headache", "assay": "Example 74: analgesic effect on severe hangover headache, topical", "conditions": "0.5% (w/v) in WEP442, topical", "description": "They were provided a solution composition containing 0.5% (w/v) of N-Ac-Tyr-Pro-Phe-Phe-NH2 (SEQ ID NO: 23) in WEP442 which they topically applied to the neck, peripheral scalp, and entire face and forehead."}, "[9]": {"tested_on": "severe osteoarthritis of both knees", "assay": "Example 17: analgesic effect on osteoarthritic knees, sublingual powder", "conditions": "powder 50 mg under the tongue", "experimental": "A subject had severe osteoarthritis of both knees with pain, inflammation and edema for four years. The subject underwent prior therapy, including intra-articular injections of corticosteroids and hyaluronic acid as well as celecoxib (Celebrex), administered orally (200 mg) twice daily. Such therapy provided only mild transitory relief of knee pain and edema, and edema of the lower legs.\nThe subject administered N-Pg-Tyr-Pro-Phe-Phe-NH2 (SEQ ID NO: 44) powder (50 mg) under the tongue (sublingually), which dissolved in saliva and absorbed slowly for about 30 minutes. […] The analgesic effect lasted for about 2 hours. The analgesic effect was judged to be about 4+ by clinical evaluation.\nUnder the same conditions, N-Pa-Tyr-Pro-Phe-Phe-NH2 (SEQ ID NO: 64) powder provided an analgesic effect of about 3+ as judged by clinical evaluation. Also under the same conditions, N-Ac-Tyr-Pro-Phe-Phe-NH2 (SEQ ID NO: 23) powder provided an analgesic effect of about 3+ as judged by clinical evaluation. Repeated application of the tetrapeptide derivatives provided 4+ efficacy as judged by clinical evaluation."}, "[10]": {"tested_on": "stress induced headache", "assay": "Example 51: analgesic effect on stress induced headache, topical", "description": "The onset of the headache was associated with emotional stress. Within two hours, the intensity of the headache became almost disabling, whereupon […] applied a solution composition containing 1% (w/v) N-Pg-Ty-Pro-Phe-Phe-NH2 (SEQ ID NO: 44) in WEP442 to the entire frontal and upper facial areas. […] At that time, the solution was generously applied a second time. […] The analgesic effect was judged to be 100%."}, "[11]": {"tested_on": "carpal tunnel syndrome", "assay": "Example 78: analgesic effect on carpal tunnel syndrome, topical", "experimental": "A subject, and a computer operator, presented with symptoms of carpal tunnel syndrome, i.e. wrist pain and tingling sensations of the palm and fingers. […] Relief occurred within 3 minutes of topical application and lasted for 2-4 hours."}, "[12]": {"tested_on": "migraine", "assay": "Example 80: analgesic effect on pain and nausea from migraine headache, topical", "conditions": "0.5% (w/v) in WEP442, topical at onset of symptoms", "description": "A subject with a history of recurrent attacks of migraine, was provided a solution composition containing 0.5% (w/v) of N-Pg-Tyr-Pro-Phe-Phe-NH2 (SEQ ID NO: 44) in WEP442 and a solution composition containing 0.5% (w/v) of N-Ac-Tyr-Pro-Phe-Phe-NHNH2 (SEQ ID NO: 31) in WEP442. […] Sensations of nausea that might have lingered went away after several minutes following a second topical application."}}, "note": "Non-standard residues stand in square brackets, D forms with d. pGlu = O=C1CC[C@@H](C(=O)O)N1", "data": [{"compound": "CC(=O)N[C@@H](Cc1ccc(O)cc1)C(=O)N1CCC[C@H]1C(=O)N[C@@H](Cc1ccccc1)C(=O)N[C@@H](Cc1ccccc1)C(N)=O", "note": "[N-Ac-Tyr-Pro-Phe-Phe-NH2]", "values": [{"measurement": "improvement by clinical evaluation", "setting": "[1]; 0.7% (w/v) in EP73, re-applied under plastic film wrap for 2 hours", "value": 100, "unit": "%"}, {"measurement": "relief of pain", "setting": "[1]; 0.7% (w/v) in EP73, topical before bedtime, next morning", "value": "about 70%"}, {"measurement": "duration of lowered degree of pain", "setting": "[2]", "value": "about 7 hours"}, {"measurement": "pain in both knees and the lower back", "setting": "[2]; after 4 hours", "value": "diminished to very low level"}, {"measurement": "pain in both knees and the lower back", "setting": "[2]; over the next 2 hours", "value": "diminished substantially"}, {"measurement": "recurrence", "setting": "[3]", "value": "did not recur at all"}, {"measurement": "pain relief", "setting": "[3]; hand-wash manner", "value": "instantaneous, complete relief of pain"}, {"measurement": "erythema, swelling and pain", "setting": "[4]; 1% (w/v) in WEP442, morning after second application", "value": "the erythema was gone, the swelling had subsided, and there was no pain"}, {"measurement": "duration of improvement", "setting": "[4]; 1% (w/v) in WEP442, topical", "value": 2, "unit": "weeks"}, {"measurement": "pain relief", "setting": "[4]; 1% (w/v) in WEP442, topical", "value": "all pain was gone"}, {"measurement": "time to pain relief", "setting": "[4]; 1% (w/v) in WEP442, topical", "value": "≤ 15", "unit": "min"}, {"measurement": "duration of pain relief", "setting": "[5]", "value": "about 3 hours"}, {"measurement": "pain relief", "setting": "[5]", "value": "completely relieved almost instantly"}, {"measurement": "duration of pain relief", "setting": "[6]", "value": "about 6 hours"}, {"measurement": "pain relief", "setting": "[6]", "value": "relieved their knee pain"}, {"measurement": "duration of pain relief", "setting": "[7]", "value": "approximately 6 hours"}, {"measurement": "pain relief", "setting": "[7]", "value": "almost complete relief of pain"}, {"measurement": "headache relief", "setting": "[8]", "value": "almost immediate, complete, relief of their aching head"}]}, {"compound": "N-Pg-Tyr-Pro-Phe-Phe-NH2 ([pGlu]YPFF-NH2; SMILES NC(=O)[C@H](Cc1ccccc1)NC(=O)[C@H](Cc1ccccc1)NC(=O)[C@@H]1CCCN1C(=O)[C@H](Cc1ccc(O)cc1)NC(=O)[C@@H]1CCC(=O)N1)", "values": [{"measurement": "analgesic effect by clinical evaluation", "setting": "[9]", "value": "4+ (4+ (90-100%): complete relief or eradication of pain for more than 4 hours)"}, {"measurement": "duration of analgesic effect", "setting": "[9]", "value": "about 2 hours"}, {"measurement": "pain relief", "setting": "[9]", "value": "the pain disappeared"}, {"measurement": "time to pain relief", "setting": "[9]", "value": "≤ 20", "unit": "min"}, {"measurement": "headache intensity", "setting": "[10]; 1% (w/v) in WEP442, first application, within about 5 minutes", "value": "diminished in intensity"}, {"measurement": "pain relief", "setting": "[10]; 1% (w/v) in WEP442, second application, within another 5 minutes", "value": "free of all headache pain"}, {"measurement": "analgesic effect", "setting": "[10]; 1% (w/v) in WEP442, topical", "value": 100, "unit": "%"}, {"measurement": "time without return of pain", "setting": "[10]; 1% (w/v) in WEP442, topical", "value": "≥ 24", "unit": "h"}, {"measurement": "duration of relief", "setting": "[11]; 0.5% (w/v) in WEP442, topical", "value": "2 to 4", "unit": "h"}, {"measurement": "time to relief", "setting": "[11]; 0.5% (w/v) in WEP442, topical", "value": "≤ 3", "unit": "min"}, {"measurement": "relief of symptoms", "setting": "[11]; 0.5% (w/v) in WEP442, topical several times during working hours", "value": "substantial relief of the symptoms"}, {"measurement": "pain relief", "setting": "[12]", "value": "complete relief of pain"}]}]}
